Test results published in patent US20080076760A1, “2,3,4,5-TETRAHYDRO-1H-1,5-BENZODIAZEPINE DERIVATIVE AND MEDICINAL COMPOSITION” (priority 2004, published 2008).

Tests used:
[1] = target: human vasopressin V1a receptor (Homo sapiens, UniProt P37288); assay: Receptor binding study, [3H]AVP displacement on CHO cell membranes, human V1a; details: [3H]AVP displacement, CHO cell membrane, 25° C., one hour; read-out: Human V1a Ki
Procedure, shortened: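 Membrane binding in 50 mM Tris-HCl pH 7.4 with MgCl2 and 0.1% BSA, incubated 1 h at 25° C. Bound ligand collected by rapid filtration on glass fiber filters, washed with ice-cold buffer, and counted for radioactivity. Nonspecific binding defined with 1 μM unlabeled AVP.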

[2] = target: human vasopressin V2 receptor (Homo sapiens, UniProt P30518); assay: Receptor binding study, [3H]AVP displacement on CHO cell membranes, human V2; details: [3H]AVP displacement, CHO cell membrane, 25° C., one hour; read-out: Human V2 Ki
Procedure, shortened: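 Membranes from CHO cells expressing human V2 receptor incubated with [3H]AVP (0.5-1.0 nM) and test compound at various concentrations in 50 mM Tris-HCl pH 7.4 with MgCl2 and 0.1% BSA, 1 h at 25 °C. Bound radioactivity counted after glass-fibre filtration; nonspecific binding defined with 1 μM unlabelled AVP.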

human vasopressin V1a receptor, sequence (P37288 whole entry): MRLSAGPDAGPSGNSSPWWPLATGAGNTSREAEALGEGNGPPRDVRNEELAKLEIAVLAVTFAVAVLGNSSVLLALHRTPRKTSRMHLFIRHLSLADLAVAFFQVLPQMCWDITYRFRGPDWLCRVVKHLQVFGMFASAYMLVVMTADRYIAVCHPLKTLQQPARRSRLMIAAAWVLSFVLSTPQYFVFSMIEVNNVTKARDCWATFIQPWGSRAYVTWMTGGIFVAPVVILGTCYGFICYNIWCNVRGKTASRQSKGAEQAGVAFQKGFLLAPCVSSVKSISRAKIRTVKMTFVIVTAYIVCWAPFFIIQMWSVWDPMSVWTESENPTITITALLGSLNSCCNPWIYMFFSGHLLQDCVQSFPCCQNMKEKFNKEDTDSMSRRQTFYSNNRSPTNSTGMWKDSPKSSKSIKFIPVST
human vasopressin V2 receptor, sequence (P30518 whole entry): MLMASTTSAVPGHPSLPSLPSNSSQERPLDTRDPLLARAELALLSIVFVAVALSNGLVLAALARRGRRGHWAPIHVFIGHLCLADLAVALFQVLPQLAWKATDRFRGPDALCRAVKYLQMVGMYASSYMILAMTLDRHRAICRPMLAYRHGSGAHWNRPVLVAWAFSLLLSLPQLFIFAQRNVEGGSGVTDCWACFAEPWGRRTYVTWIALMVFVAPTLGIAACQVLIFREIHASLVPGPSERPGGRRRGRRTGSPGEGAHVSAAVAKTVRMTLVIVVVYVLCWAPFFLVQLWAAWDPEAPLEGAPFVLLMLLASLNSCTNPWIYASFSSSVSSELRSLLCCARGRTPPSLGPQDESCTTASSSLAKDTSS

Row | Structure (SMILES) | Ki [1] | Ki [2]
1 | C[C@H]1CCN(C(=O)c2ccc(-c3ccc4[nH]ccc4c3)c(C(=O)OCCN(C)C)c2)c2ccccc2N1 [Example 144, 2-(dimethylamino)ethyl 2-(1H-indol-5-yl)-5-[[(4S)-4-methyl-2,3,4,5-tetrahydro-1H-1,5-benzodiazepin-1-yl]carbonyl]benzoate] | 0.11 nM | 28 nM
2 | CCCCCN(C)CCCOc1cc(C(=O)N2CC[C@H](C)Nc3ccccc32)ccc1-c1ccc2[nH]ccc2c1 [Example 108, N-[3-[2-(1H-indol-5-yl)-5-[[(4S)-4-methyl-2,3,4,5-tetrahydro-1H-1,5-benzodiazepin-1-yl]carbonyl]phenoxy]propyl]-N-methyl-1-pentaneamine] | 0.42 nM | 21 nM
3 | CCCN1CCC(OC(=O)c2cc(C(=O)N3CC[C@H](C)Nc4ccccc43)ccc2-c2ccc3[nH]ccc3c2)CC1 [Example 138] | 0.23 nM | 34 nM
4 | C[C@H]1CCN(C(=O)c2ccc(-c3ccc4[nH]ccc4c3)c(OCCCN3C(=O)CNC3=O)c2)c2ccccc2N1 [Example 97, 3-[3-[2-(1H-indol-5-yl)-5-[[(4S)-4-methyl-2,3,4,5-tetrahydro-1H-1,5-benzodiazepin-1-yl]carbonyl]phenoxy]propyl]-2,4-imidazolidinedion] | 0.13 nM | 0.39 nM
5 | C[C@@H]1CCN(C(=O)c2ccc(-c3ccc4[nH]ccc4c3)c(OCCCN)c2)c2ccccc2N1 [Example 55, 3-[2-(1H-indol-5-yl)-5-[[(4R)-4-methyl-2,3,4,5-tetrahydro-1H-1,5-benzodiazepin-1-yl]carbonyl]phenoxy]propylamine] | 0.31 nM | 25 nM
6 | CC(=O)Nc1cc(C(=O)N2CCC(C(C)C)Nc3ccccc32)ccc1-c1ccc2[nH]ccc2c1 (stereo not drawn) [Example 7, N-[2-(1H-indol-5-yl)-5-[(4-isopropyl-2,3,4,5-tetrahydro-1H-1,5-benzodiazepin-1-yl)carbonyl]phenyl]acetamide] | 0.38 nM | 15 nM
7 | CC(=O)N1CCN(CCCOc2cc(C(=O)N3CC[C@H](C)Nc4ccccc43)ccc2-c2ccc3[nH]ccc3c2)CC1 [Example 73, (4S)-1-[3-[3-(4-acetyl-1-piperazinyl)propoxy]-4-(1H-indol-5-yl)]-4-methyl-2,3,4,5-tetrahydro-1H-1,5-benzodiazepine] | 0.19 nM | 4.6 nM
8 | CCCN1CCN(CCCOc2cc(C(=O)N3CC[C@@H](C)Nc4ccccc43)ccc2-c2ccc3[nH]ccc3c2)CC1 [Example 128, (4R)-1-[4-(1H-indol-5-yl)-3-[3-(4-propyl-1-piperazinyl)propoxy]benzoyl]-4-methyl-2,3,4,5-tetrahydro-1H-1,5-benzodiazepine] | 0.2 nM | 39 nM
9 | CCCN(C)CCCOc1cc(C(=O)N2CC[C@H](C)Nc3ccccc32)ccc1-c1ccc(NCC)cc1 [Example 129, N-ethyl-2′-[3-[methyl(propyl)amino]propoxy]-4′-[[(4S)-4-methyl-2,3,4,5-tetrahydro-1H-1,5-benzodiazepin-1-yl]carbonyl][1,1′-biphenyl]-4-amine] | 0.4 nM | 88 nM
10 | CCCN(C)CCCOc1cc(C(=O)N2CC[C@@H](C)Nc3ccccc32)ccc1-c1ccc2[nH]ccc2c1 [Example 127, N-[3-[2-(1H-indol-5-yl)-5-[[(4R)-4-methyl-2,3,4,5-tetrahydro-1H-1,5-benzodiazepin-1-yl)carbonyl]phenoxy]propyl]-N-methyl-N-propylamine] | 0.21 nM | 77 nM
11 | CCN(C)CCCCOc1cc(C(=O)N2CC[C@H](C)Nc3ccccc32)ccc1-c1ccc2[nH]ccc2c1 [Example 172, N-ethyl-4-[2-(1H-indol-5-yl)-5-[[(4S)-4-methyl-2,3,4,5-tetrahydro-1H-1,5-benzodiazepin-1-yl]carbonyl]phenoxy]-N-methyl-1-butaneamine] | 0.093 nM | 7.1 nM
12 | C[C@H]1CCN(C(=O)c2ccc(-c3ccc4[nH]ccc4c3)c(OCCCN(C)C)c2)c2ccccc2N1 [Example 78, N-[3-[2-(1H-indol-5-yl)-5-[[(4S)-4-methyl-2,3,4,5-tetrahydro-1H-1,5-benzodiazepin-1-yl]carbonyl]phenoxy]propyl]-N,N-dimethylamine] | 0.11 nM | 12 nM
13 | C[C@H]1CCN(C(=O)c2ccc(-c3ccc4[nH]ccc4c3)c(CN3CCOCC3)c2)c2ccccc2N1 [Example 94, (4S)-1-[4-(1H-indol-5-yl)-3-(4-morpholinylmethyl)benzoyl]-4-methyl-2,3,4,5-tetrahydro-1H-1,5-benzodiazepine] | 0.21 nM | 0.73 nM
14 | CCCN(C)C1CCN(CCOc2cc(C(=O)N3CC[C@H](C)Nc4ccccc43)ccc2-c2ccc3[nH]ccc3c2)CC1 [Example 151, N-[1-[2-[2-(1H-indol-5-yl)-5-[[(4S)-4-methyl-2,3,4,5-tetrahydro-1H-1,5-benzodiazepin-1-yl]carbonyl]phenoxy]ethyl]-4-piperidinyl]-N-methyl-N-propylamine] | 0.25 nM | 10 nM
15 | CCCCN1CCN(CCOc2cc(C(=O)N3CC[C@H](C)Nc4ccccc43)ccc2-c2ccc3[nH]ccc3c2)CC1 [Example 148, (4S)-1-[3-[2-(4-butyl-1-piperazinyl)ethoxy]-4-(1H-indol-5-yl)benzoyl]-4-methyl-2,3,4,5-tetrahydro-1H-1,5-benzodiazepine] | 0.23 nM | 9.6 nM
16 | CC1CCN(C(=O)c2ccc(-c3ccc4[nH]ccc4c3)c(OCCCCN)c2)c2ccccc2N1 (stereo not drawn) [Example 36, 4-[2-(1H-indol-5-yl)-5-[(4-methyl-2,3,4,5-tetrahydro-1H-1,5-benzodiazepin-1-yl)carbonyl]phenoxy]-1-butaneamine] | 0.23 nM | 11 nM
17 | CCCN1CCN(CCCOc2cc(C(=O)N3CC[C@H](C)Nc4ccccc43)ccc2-c2ccc(NCC)cc2)CC1 [Example 159, N-ethyl-4′-[[(4S)-4-methyl-2,3-4,5-tetrahydro-1H-1,5-benzodiazepin-1-yl]carbonyl]-2′-[3-(4-propyl-1-piperazinyl)propoxy][1,1′-biphenyl]-4-amine] | 0.18 nM | 11 nM
18 | COc1cc(C(=O)N2CCC(C)(C)Nc3ccccc32)ccc1-c1ccc2[nH]ccc2c1 [Example 2, 1-[4-(1H-indol-5-yl)-3-methoxybenzoyl]-4,4-dimethyl-2,3,4,5-tetrahydro-1H-1,5-benzodiazepine] | 0.31 nM | 4.4 nM
19 | C[C@@H]1CN(CCCOc2cc(C(=O)N3CC[C@H](C)Nc4ccccc43)ccc2-c2ccc3[nH]ccc3c2)C[C@H](C)O1 [Example 115, (4S)-1-[3-[3-[(2R,6S)-2,6-dimethylmorpholinyl]propoxy]-4-(1H-indol-5-yl)benzoyl]-4-methyl-2,3,4,5-tetrahydro-1H-1,5-benzodiazepine] | 0.27 nM | 4.9 nM
20 | C[C@H]1CCN(C(=O)c2ccc(-c3ccc4[nH]ccc4c3)c(C(=O)OCCCCN(C)C)c2)c2ccccc2N1 [Example 162, 4-(dimethylamino)butyl 2-(1H-indol-5-yl)-5-[[(4S)-4-methyl-2,3,4,5-tetrahydro-1H-1,5-benzodiazepin-1-yl]carbonyl]benzoate] | 0.13 nM | 29 nM
21 | C[C@H]1CCN(C(=O)c2ccc(-c3ccc4[nH]ccc4c3)c(NC(=O)N3CCOCC3)c2)c2ccccc2N1 [Example 89, N-[2-(1H-indol-5-yl)-5-[[(4S)-4-methyl-2,3,4,5-tetrahydro-1H-1,5-benzodiazepin-1-yl]carbonyl]phenyl]-4-morpholine carboxamide] | 0.29 nM | 19 nM
22 | CCCN(C)CCCOc1cc(C(=O)N2CC[C@H](C)Nc3ccccc32)ccc1-c1ccc2[nH]ccc2c1 [Example 81, N-[3-[2-(1H-indol-5-yl)-5-[[(4S)-4-methyl-2,3,4,5-tetrahydro-1H-1,5-benzodiazepin-1-yl]carbonyl]phenoxy]propyl]-N-methyl-N-propylamine] | 0.17 nM | 8 nM
23 | C[C@H]1CCN(C(=O)c2ccc(-c3ccc4[nH]ccc4c3)c(OCCCN3CCC(N(C)C)CC3)c2)c2ccccc2N1 [Example 123] | 0.38 nM | 9.9 nM
24 | CCCCN(C)CCCCOc1cc(C(=O)N2CC[C@H](C)Nc3ccccc32)ccc1-c1ccc2[nH]ccc2c1 [Example 173, N-butyl-4-[2-(1H-indol-5-yl)-5-[[(4S)-4-methyl-2,3,4,5-tetrahydro-1H-1,5-benzodiazepin-1-yl]carbonyl]phenoxy]-N-methyl-1-butaneamine] | 0.21 nM | 10 nM
25 | CC(=O)Nc1cc(C(=O)N2CC[C@@H](C)Nc3ccccc32)ccc1-c1ccc2[nH]ccc2c1 [Example 16, N-[2-(1H-indol-5-yl)-5-[[(4R)-4-methyl-2,3,4,5-tetrahydro-1H-1,5-benzodiazepin-1-yl]carbonyl]phenyl]acetamide] | 0.33 nM | 63 nM
26 | C[C@H]1CCN(C(=O)c2ccc(-c3ccc4[nH]ccc4c3)c(OCCCN3CCOC3=O)c2)c2ccccc2N1 [Example 92, 3-[3-[2-(1H-indol-5-yl)-5-[[(4S)-4-methyl-2,3,4,5-tetrahydro-1H-1,5-benzodiazepin-1-yl]carbonyl]phenoxy]propyl]-1,3-oxazolidin-2-one] | 0.21 nM | 5.6 nM
27 | CCCN(C)CCCOc1cc(C(=O)N2CC[C@@H](C)Nc3ccccc32)ccc1-c1ccc(NC)cc1 [Example 130, N-methyl-2′-[3-[methyl(propyl)amino]propoxy]-4′-[[(4R)-4-methyl-2,3,4,5-tetrahydro-1H-1,5-benzodiazepin-1-yl]carbonyl][1,1′-biphenyl]-4-amine] | 0.36 nM | 309 nM
